Assay results from patent US12286625B2, “Inhibition of mir-22 miRNA by APT-110” (AptamiR Therapeutics, Inc., priority 2016, dated 2025).

System: human subcutaneous adipocytes
Test: O2 consumption rate (OCR), Seahorse XF24 with XF Palmitate-BSA Fatty Acid Oxidation kit, human subcutaneous adipocytes
Type: cell-based
Description: To characterize the effects of miR-22-3p inhibition on energy utilization in human subcutaneous adipocytes in culture, O2 consumption rate (OCR) was measured with the XF24 Analyzer (Seahorse Bioscience) using the XF Palmitate-BSA Fatty Acid Oxidation substrate kit during the successive addition of Oligomycin, FCCP, and Antimycin/Rotenone, following the manufacturer instructions.
Human subcutaneous pre-adipocytes (ZenBio, NC) were seeded into 96-well plates and differentiated for 7 days, then placed in maintenance medium according to the manufacturer's instructions. On Day 14, the adipocytes were transfected with 50 nM of the miR-22-3p inhibitor APT-110. Medium was exchanged every 2 to 3 days and Seahorse assay was performed on Day 21. Negative control was bovine serum albumin (BSA) and positive control was 100 nM rosiglitazone throughout the culture.

5′-5mCpsTpsTps2′OMeCpsTpsTps5mCpsApsAps2′OMeCpsTpsGpsGps5mCpsApsGps5mCpsT-3′ [APT-110]
non-mitochondrial respirations and proton leak on addition of palmitate (APT-110 50 nM + palmitate): dramatic increase
maximum respiration increase (APT-110 50 nM, assay Day 21): 33%
basal OCR vs control adipocytes (basal conditions, rosiglitazone 100 nM or APT-110 50 nM, control BSA): 2 fold
